Measurements from US20130149415A1, “Use of manganese for enhancing the growth of L.casei in mixed cultures” (priority 2010, published 2013).
Like-named read-outs stand apart in the source and are kept apart here.

What was measured:
[1] = tested on: Streptococcus thermophilus and Lactobacillus bulgaricus; test: Acidification kinetics of the co-cultures (monitoring of yogurt bacteria growth by pH decrease); assay type: cell-based
Description: The populations of Streptococcus thermophilus and Lactobacillus bulgaricus were not evaluated by cell counts, but by the evaluation of the acidification kinetics. It is well known that Streptococcus thermophilus and Lactobacillus bulgaricus grow faster in milk than L. casei and their lactic acid productions are directly correlated to their growth. Also, in the present invention, the monitoring of acidification corresponds to the monitoring of Streptococcus thermophilus and Lactobacillus bulgaricus growth.

[2] = tested on: Lactobacillus casei subsp. paracasei DN-114 121; test: Cell count of Lactobacillus casei subsp. paracasei co-cultured with yogurt ferments in dairy medium; assay type: cell-based; settings: for ratio count.Mn/count. J + 1 / ratio count.Mn/count. J + 3: Mn 20 mg/L vs without Mn; for Count ufc/ml at +10° C. J + 1 / Count ufc/ml at +10° C. J + 3: Mn 20 mg/L
Experimental: Medium A and medium B are inoculated with Lactobacillus casei subsp. paracasei DN-114 121 (3.80×10^7 CFU/ml), and a yogurt ferment (DN 542 142) consisting of: Streptococcus thermophilus DN-001 640 (10^6 CFU/ml), Streptococcus thermophilus DN-001 336 (2. 10^6 CFU/ml), Streptococcus thermophilus DN-001 236 (7. 10^5 CFU/ml) and Lactobacillus bulgaricus DN-100 290 (10^5 CFU/ml).
Fermentation was conducted at 36° C., and monitored by measuring the decrease of pH in the culture medium. Fermentation was stopped by transferring the preparation at 4° C. when a target pH of 4.6 was reached.
(§1) The population of Lactobacillus casei subsp. paracasei, was evaluated at J+3 by cell count analysis. Cell count analysis was performed by serial dilutions of the fermented medium with tryptone salt solution, and plating on Petri dishes with appropriate agar medium: MRS Agar containing 1.5 g/l of BactoOXGALL (DIFCO) for Lactobacillus casei.
(§2) Petri dishes were incubated at 37° C. during 96 H in anaerobic conditions (5% CO2).
Two yogurt ferments were tested in combination with Lactobacillus casei: DN 542 142 described above, and DN 543 043, consisting of a strain of Streptococcus thermophilus (DN-.001 171) and a strain of Lactobacillus bulgaricus (DN-100 182).
Lactobacillus casei subsp. paracasei DN-114 121 was inoculated at 3.8 10^7 CFU/ml.
DN 542 142 was inoculated at 10^6 CFU/ml for Streptococcus thermophilus DN-001 640; 2.10^6 CFU/ml for Streptococcus thermophilus DN-001 336; 7.10^5 CFU/ml for Streptococcus thermophilus DN-001 236, and 10^5 CFU/ml for Lactobacillus bulgaricus DN-100 290.
DN 543 043 was inoculated at 2.10^6 CFU/ml for Streptococcus thermophilus DN-001 171; and 7.10^4 CFU/ml for Lactobacillus bulgaricus DN-100 182.
Fermentation was conducted at 36° C., and monitored by measuring the decrease of pH in the culture medium. Fermentation was stopped by transferring the preparation at 4° C. when a target pH of about 4.6 (in the case of the co-culture with the yogurt ferment DN 542 142), or of about 4.45 (in the case of the co-culture with the yogurt ferment DN 543 043) was reached.
The population of Lactobacillus casei subsp. paracasei was evaluated after 1 day (J+1) and 3 days (J+3) incubation at 10° C.
(§3) The same experimentations as in Example 1 were performed with co-cultures of Lactobacillus casei subsp. paracasei DN-114 121 or Lactobacillus casei subsp. rhamnosus DN-116 010 with the yogurt ferment DN 543 043 described above, or the yogurt ferment DN 522 044, consisting of a strain of Streptococcus thermophilus (DN-001 143), Streptococcus thermophilus (DN-001 257) and a strain of Lactobacillus lactis (DN-111 224).
(§4) Fermentation was conducted at 36° C., and monitored by measuring the decrease of pH in the culture medium. Fermentation was stopped by transfering the preparation at 4° C. when a target pH of about 4.6 was reached.
(§5) The population of Lactobacillus casei subsp. paracasei was evaluated after 1 day (J+1) incubation at 10° C.

[3] = tested on: Lactobacillus casei subsp. rhamnosus DN-116 010; settings: for paracasei ou rhamnosus count. num. Mn/count. J + 1 / Count ufc/ml at +10° C. Count. J + 1 paracasei ou rhamnosus: 543 043 + 116 010
Experimental: as §1, §2, §3
Lactobacillus casei subsp. rhamnosus DN-116 010 was inoculated at 5.8 10^7. CFU/ml.
DN 543 043 was inoculated at 2 10^6 CFU/ml for Streptococcus thermophilus DN-001 171; and 7 10^4 CFU/ml for Lactobacillus bulgaricus DN-100 182.
as §4, §5

[4] = addition of 20 mg/l of manganese, Example 1 co-cultures (DN 542 142 or DN 543 043 + DN-114 121)

monohydrate manganese sulfate [Mn] was tested, and the “effect on the acidification kinetics of the co-cultures” value ([1]; Example 2 co-cultures, 0.5, 20, 60 mg/l manganese) was “no effect”, the “effect on the acidification kinetics of the co-cultures” value [1, 4] was “no effect” and the “paracasei ou rhamnosus count. num. Mn/count. J + 1” value ([2]; 522 044 + 114 121, 20 mg/L Mn vs 0 mg/L Mn) was 2.3. The “Count ufc/ml at +10° C. Count. J + 1 paracasei ou rhamnosus” value ([2]; 522 044 + 114 121, 20 mg/L Mn) was 3.25E+08 ufc/ml, the “ratio count.Mn/count. J + 1” value ([2]; 542 142 + 114 121) was 1.9 and the “ratio count.Mn/count. J + 3” value ([2]; 542 142 + 114 121) was 1.7. For the same substance, the “Count ufc/ml at +10° C. J + 1” value ([2]; 542 142 + 114 121) was 1.15E+08 ufc/ml, the “Count ufc/ml at +10° C. J + 3” value ([2]; 542 142 + 114 121) was 1.61E+08 ufc/ml and the “paracasei ou rhamnosus count. num. Mn/count. J + 1” value ([2]; 543 043 + 114 121, 0.5 mg/L Mn vs 0 mg/L Mn) was 2.2. The “Count ufc/ml at +10° C. Count. J + 1 paracasei ou rhamnosus” value ([2]; 543 043 + 114 121, 0.5 mg/L Mn) was 2.99E+08 ufc/ml, the “paracasei ou rhamnosus count. num. Mn/count. J + 1” value ([2]; 543 043 + 114 121, 20 mg/L Mn vs 0 mg/L Mn) was 2.3 and the “Count ufc/ml at +10° C. Count. J + 1 paracasei ou rhamnosus” value ([2]; 543 043 + 114 121, 20 mg/L Mn) was 3.13E+08 ufc/ml. For the same substance, the “paracasei ou rhamnosus count. num. Mn/count. J + 1” value ([2]; 543 043 + 114 121, 60 mg/L Mn vs 0 mg/L Mn) was 2.4, the “Count ufc/ml at +10° C. Count. J + 1 paracasei ou rhamnosus” value ([2]; 543 043 + 114 121, 60 mg/L Mn) was 3.25E+08 ufc/ml and the “ratio count.Mn/count. J + 1” value ([2]; 543 043 + 114 121) was 1.9. The “ratio count.Mn/count. J + 3” value ([2]; 543 043 + 114 121) was 2.1, the “Count ufc/ml at +10° C. J + 1” value ([2]; 543 043 + 114 121) was 2.70E+08 ufc/ml and the “Count ufc/ml at +10° C. J + 3” value ([2]; 543 043 + 114 121) was 3.00E+08 ufc/ml. The “effect on the population of the bacteria of the L. casei group” value ([2]; Example 2, Lactobacillus casei ssp paracasei, 0.5, 20, 60 mg/l manganese) was “selectively increases the population”, the “effect on the population of Lactobacillus casei” value [2, 4] was “selectively increases the population of Lactobacillus casei” and the “paracasei ou rhamnosus count. num. Mn/count. J + 1” value ([3]; 20 mg/L Mn vs 0 mg/L Mn) was 1.3. The “Count ufc/ml at +10° C. Count. J + 1 paracasei ou rhamnosus” value ([3]; 20 mg/L Mn) was 3.20E+08 ufc/ml, the “paracasei ou rhamnosus count. num. Mn/count. J + 1” value ([3]; 60 mg/L Mn vs 0 mg/L Mn) was 1.3 and the “Count ufc/ml at +10° C. Count. J + 1 paracasei ou rhamnosus” value ([3]; 60 mg/L Mn) was 3.30E+08 ufc/ml. The “effect on the population of the bacteria of the L. casei group” value ([3]; Example 2, Lactobacillus casei ssp rhamnosus, 20, 60 mg/l manganese) was “selectively increases the population”.
